Laboratory results from US8518882B2, “Methods and compositions for ameliorating or inhibiting decline in memory or intelligence or improving same” (priority 1998, dated 2013).

Tests used:
gerbils = assay: Radial arm maze food pellet learning assay in gerbils; type: in vivo; conditions: gerbils, 0.1, 0.5 or 2.5% UMP chow for three weeks
Description: Male young adult gerbils fed control or UMP-containing chow (0, 0.1, 0.5 or 2.5%) ad lib for three weeks were tested in a radial arm maze, consisting of a central chamber with four branches primed with a small food pellet at the end of each. Before testing, animals were fasted overnight; each animal was then placed in the central chamber and allowed up to 180 seconds to find all of the pellets. A shorter time required to find the pellets is indicative of improved learning and spatial memory.

EC and IC rats = assay: Visible platform water maze task in EC and IC rats; type: in vivo, Sprague Dawley rats; conditions: UMP-supplemented diet
Description: On each trial the animal was placed into the tank facing the wall at one of four designated start points (N, S, E, and W) and allowed to escape onto the visibly cued platform. A different starting point was used on each trial such that each starting point was used each day. In addition, the visible escape platform was placed in a different quadrant on each trial such that each of the four quadrants contained the escape platform once each day. […] After mounting the platform, rats remained on the platform for 20 sec. Following each trial, animals were removed from the maze and placed in a holding cage for a 30-sec ITI.

[1] = Body weight of EC and IC rats on UMP diet; type: in vivo, Sprague Dawley rats; conditions: 0.1% UMP-2Na+ diet vs control groups
Description: Animals were maintained under standard environmental conditions (room temperature, 20-25° C.; relative humidity, 55-60%; light/dark schedule, 12/12). Seven pregnant Sprague Dawley rats (Charles River Laboratories) were obtained 1 wk prior to giving birth. […] At this time, thirty-two rats were matched according to body weight, and assigned to either IC or EC conditions.
Rats were housed in the same rack in plastic cages (52×32×20 cm high) with wire lids. Bedding and water were regularly changed, and animals were weighed each week, at which time general health assessments were made. Animals had ad libitim access to chow and water. EC rats were housed in groups of 2-3 animals Plastic toys (blocks, balls, PVC tubing, etc) placed in the EC cages were rotated between groups weekly; new toys were introduced monthly EC rats were taken to a “playroom” (12×6 ft; containing cabinets, desks, chairs, boxes, and toys) every other day for 45 min. The IC rats were housed individually, without toys, and handled three times per week to acclimatize the animals to experimenter handling and in order to alleviate fear and anxiety in subsequent behavioral training procedures. To avoid the typical weight gain caused by impoverished conditions (relative to enriched rats), IC rats were allowed to exercise three times per week for 15 min in an empty 4×6 ft room with only the experimenter present. […]

[2] = Body weight of aged rats on UMP diet; conditions: 2.5% UMP·2Na+ diet, 0-6 weeks
Description: Male middle aged Fischer 344 rats, 22-24 months old at the time of doing microdialysis, were obtained from National Institute on Aging (Harlan Sprague-Dawley, Indianapolis, Ind.). Rats were housed individually under standard husbandry conditions and exposed to 12 hr light/dark cycle with food and water provided ad libitum.
Rats were acclimated to the animal facility for more than 7 days before fed a control laboratory diet (Teklad Global 16% protein rodent diet, TD.00217, Harlan Telclad, Madison, Wis.), or this diet fortified with UMP·2Na^+ (2.5%, TD.03398, UMP·2Na^+; Numico Research, the Netherlands) for 6 weeks.
Rats were not fed with the research diet until at least 7 days later after their arrival. They were weighed at the time of beginning feeding (t=0), as well as 1, 2, 4, 6 weeks later. At time 0, rats were randomly assigned into two groups.

[3] = system: CDP-choline levels in the brain; assay: Brain CDP-choline levels after oral UMP in gerbils; type: in vivo; conditions: UMP 1 mmole/kg by gavage, for 30 min, r=0.98, p<0.02
Description: Data was pooled from three experiments, with group sizes ranging from 5 to 16 animals. Male gerbils (60-80 g) were given UMP (1 mmole/kg body weight) by gavage and sacrificed at the indicated times. After brain homogenization, protein precipitation, and lyophilization as described for Example 3, samples were analyzed by HPLC-UV.
Brain tissue or cells was dissolved in methanol/chloroform (1:2 vol/vol), centrifuged, and the aqueous phase was dried under vacuum, resuspended in 100-200 μL water and separated by HPLC on an ion-exchange column (Alltech Hypersil APS-2, 5 μM, 250×4.6 mm). CDP-choline was eluted with a linear gradient of NaH2PO4 buffers A (1.75 mM NaH2PO4, pH 2.9) and B (500 mM, pH 4.5), which allowed resolution of CDP-choline from closely co-eluting substances such as UMP over 40 min. The retention time for CDP-choline was 9.5 min. Individual nucleotide peaks were detected by UV absorption at […], and were identified by comparison with the positions of authentic standards, as well as by the addition of nucleotide standards to selected samples.

O=c1ccn([C@@H]2O[C@H](COP(=O)([O-])[O-])[C@@H](O)[C@H]2O)c(=O)[nH]1.[Na+].[Na+] [UMP, uridine-5′-monophosphate disodium]
Time required to find the pellets (gerbils): reduced the time required for gerbils to find the pellet in a dose-dependent manner
Striatal-based (stimulus-response) memory, visible platform task (EC and IC rats): little or no effect
Mean body weights [1]: No significant differences
Body weight [2]: neither UMP-diet (vs. control) nor UMP time interaction affected body weight
Brain CDP-choline levels [3]: rose significantly in a linear fashion
